The text below walks through data of patent publication US12673025B2, “Pegylated liposomes and uses thereof” (LT BIOPHARMA INC., priority 2024, dated 2026).

In one assay the test system is A549 cells. The assay can be described thus: MTT cell viability assay. The assay is classed as cell-based. As to conditions: Homo sapiens, A549 lung cancer cells, 24 h. The procedure:
(§1) The MTT assay was performed to determine cell viability. 5×10^3 cells per well with 100 μl cell medium were plated in 96-well plates, incubating for 24 hours. Then, the cell medium in plates was removed and each well was treated medium with free nosiheptide or liposome encapsulated nosiheptide in serial-diluted concentration from 3.125 to 50 μM. The medium with PBS buffer was regarded as the control group. After incubating 24 hours, the medium was removed and 100 μl medium-diluted 10% MTT was added in the 96 well plate. After incubation for 3 hours, the MTT solution was removed and the residual formazan crystal was dissolved with 100 μl DMSO (Dimethyl sulfoxide, Sigma Aldrich). The cell viability was determined by measuring the absorbance at 570 nm using ELISA Reader (TECAN, Sunrise™), and the data was calculated by the following formula: […]
(§2) The range of IC50 values was obtained by observing the curve, and all experiments were carried out in triplicate.
(Formazan colour is commonly taken as a measure of viable cells.)

Another assay relates to HFW cells. Briefly: MTT cell viability assay. As to conditions: HFW normal cells, 24 h. The assay is classed as cell-based. How it is done:
as §1, §2

In assay [1] the test system is Staphylococcus aureus (ATCC33591). The assay can be described thus: Murine model of i.v. S. aureus infection (survival). In kind it is in vivo, mice. As to conditions: 20 mg/kg i.v. at 1 and 8 hours after infection. How it is done:
Establishment of murine injection model of was assessed to test in vivo efficacy of nosiheptide liposome. Eight-week-old female ICR mice (LASCO, Taipei, Taiwan) were injected i.v. with 1×10^9 CFU/ml of Staphylococcus aureus (ATCC33591) strain in PBS buffer (pH=7.42).

Another assay has as its system VRSA 01. Briefly: Time-kill analysis. As to conditions: ¼×MIC. The assay is classed as cell-based, Staphylococcus aureus. The procedure:
The antimicrobial activity of nosiheptide and nosiheptide liposome against VRSA 01 were assessed by time-kill analysis. VRSA 01 was cultured in TSB medium overnight. After that, fresh TSB was inoculated for growth to mid-logarithmic phase. Bacteria was added at starting inoculum of 5×10^9 CFU/ml. Nosiheptide and nosiheptide liposome were added to final concentrations with 1×MIC and ¼×MIC, the value of MICs were determined in previous experiments. Bacteria with only medium was regarded as the grown control. The cultures were incubated in 37° C. shaking incubator, and aliquots were removed from each tube at 1, 2, 4, 8, 24 hours and serially diluted for CFU enumeration on TSA plates. To compare rates of antibiotic killing, the decline of viable bacteria (Log10 CFU/ml) was evaluated at the measured time points. Experiments were repeated independently in triplicate. The lower limit of detection for the colony counts was 2 log10 CFU/ml.

The subject of assay [2] is Staphylococcus aureus (ATCC19636). Briefly: MIC broth microdilution assay. The assay is classed as cell-based. Background: Broth dilution looks for growth in wells or tubes with falling amounts of substance.
In assay [3] the test system is Staphylococcus aureus (ATCC29213). The assay can be described thus: MIC broth microdilution assay. The assay is classed as cell-based. How it is done: (§3) For the purpose of antimicrobial activity evaluation of liposome encapsulated nosiheptide, bacteria strain was cultivated in tryptic soy broth (Difco, Becton, Dickinson, Sparks, MD) or brain heart infusion broth (Difco, Becton, Dickinson, Sparks, MD) at 37° C. for 16˜18 hours to the stationary phase. After that, 1000 μl of inoculums were treated to 15 ml tryptic soy broth medium and incubated at 37° C. for 3˜4 hours. Bacteria counts were determined to 5×10^5 CFU/ml for antimicrobial activity via absorbance value of OD600 (1 OD600=1×10^8 CFU/ml) by spectrophotometer. (Ultraspec 2100 Pro, UV/Visible spectrophotometer, Biochrom, Massachusetts, USA)
(§4) The minimum inhibitory concentration values of peptides and liposome encapsulated peptides were evaluated by standard broth microdilution assay which was referred to the guideline of the Clinical and Laboratory Standards Institute (CLSI) (M27-A4., C.a.L.S.I.a.s.t.e.C.d., Reference method for broth dilution antifungal susceptibility testing of yeasts. Clinical and Laboratory Standards Institute, Wayne, PA., 2017). MIC assays were carried out with initial bacterial inoculum of 5×10^5 colony forming units (CFU/ml) in suitable medium. Peptides and liposome encapsulated peptides were added to polystyrene 96-well plates with serial dilution. Vancomycin-Resistant Staphylococcus aureus (VRSA01), Staphylococcus aureus (ATCC29213), Staphylococcus aureus (ATCC33591), Pseudomonas aeruginosa (ATCC278533) were cultivated in TSB broth. MICs was preliminarily defined as the lowest concentration of peptides which inhibited the 90% visible growth of bacteria.
(§5) The concentration-diluted peptide was treated 1 μl in 96-well plates. Subsequently, 99 μl medium which containing 5×10^5 CFU/ml bacteria inoculum were loaded individually in each wells, the serial-diluted concentration of peptide were from 8 to 0.0625 μg/ml. Evaluation of bacterial growth were performed by measuring the OD at 600 nm in a microplate reader (TECAN, Sunrise™) over 16 hours at 37° C. Medium-treated wells were used as the control, and all experiments were carried out in triplicate.

For assay [4], the system named is Staphylococcus aureus (ATCC33591). The assay can be described thus: MIC broth microdilution assay. The assay is classed as cell-based. How it is done: as §3, §4, §5
In assay [5] the test system is Vancomycin-Resistant Staphylococcus aureus (VRSA01). Briefly: MIC broth microdilution assay. The assay is classed as cell-based. The procedure:
as §3, §4, §5

In assay [6] the test system is Pseudomonas aeruginosa ATCC 27853. Briefly: MIC broth microdilution assay. In kind it is cell-based. As to conditions: for MIC: ATCC27853; for antibacterial activity: Pseudomonas aeruginosa (ATCC278533). How it is done: as §3, §4, §5

≈ marks a conversion by molar mass, not a printed value. Where two headings read alike, the source gives them in different places. A value given as a limit tells only on which side of the number the result lay.

Usually IC50 stands for the midpoint of a concentration-inhibition curve. A high value points to a need for much substance. As a reminder, the MIC is the lowest concentration found to suppress growth.

Turning to `C=C(NC(=O)c1csc(-c2nc3c(cc2O)-c2nc(cs2)C(=O)NC(C(C)O)C(=O)N/C(=C\C)c2nc(cs2)C(=O)NC2CC(O)C(=O)OCc4cccc5[nH]c(c(C)c45)C(=O)SCC(NC(=O)c4csc2n4)c2nc-3cs2)n1)C(N)=O` (stereo not shown) [Nosiheptide Free, Nosiheptide], the IC50 in the assay on A549 cells is 26.2 ± 5.26 µM; with HFW cells, 28.3 ± 9.23 µM. The survival rate in [1] (end of study (7 days)) amounted to 62.5%. Also, the “mice died during the first two days” value in assay [1] (first two days) is on record as “⅜”. Moreover, the “time to 2-log kill” value with VRSA 01 stood at 4 hours. For the same molecule, the “antibacterial activity” value in assay [2] and in assay [6] was “no antibacterial activity” throughout. For the same molecule, the MIC was above 8 µg/mL in assay [2] (read-out: MIC); 0.125 µg/mL (≈ 0.102 µM) in assay [3] (read-out: MIC); 0.0625 µg/mL (≈ 0.0511 µM) in assay [4] (read-out: MIC); 0.0625 µg/mL (≈ 0.0511 µM) in assay [5] (Vancomycin Resistant Staphylococcus aureus 01, read-out: MIC); above 8 µg/mL in [6] (Pseudomonas aeruginosa ATCC 27853, read-out: MIC).
As for `C=C(NC(=O)C(=C)NC(=O)c1csc(C2=N[C@@H]3c4csc(n4)[C@H]4NC(=O)c5csc(n5)[C@H]([C@](C)(O)[C@@H](C)O)NC(=O)[C@H]5CSC(=N5)/C(=C/C)NC(=O)[C@H]([C@@H](C)O)NC(=O)c5csc(n5)[C@]3(CC2)NC(=O)[C@H](C)NC(=O)C(=C)NC(=O)[C@H](C)NC(=O)[C@H]([C@@H](C)CC)N[C@@H]2C=Cc3c([C@H](C)O)cc(nc3[C@H]2O)C(=O)O[C@@H]4C)n1)C(N)=O` [Thiostrepton Free, Thiostrepton], the MIC in [2] was above 8 µg/mL; in [3], 0.625 µg/mL (≈ 0.375 µM); in [4], 0.625 µg/mL (≈ 0.375 µM); in [5] (Staphylococcus aureus), 0.25 µg/mL (≈ 0.15 µM); in [6] (Pseudomonas aeruginosa) it was above 8 µg/mL. For the same molecule, the “antibacterial activity” value in assay [2] and in assay [6] was “no antibacterial activity” throughout.
